Results as given in patent publication US20100105081A1, “DETECTING FUNGI IN HUMAN SAMPLES” (MAYO MEDICAL VENTURES, priority 2004, published 2010).

System: Alternaria
Assay: Total Alternaria polypeptides in nasal secretions of CRS patients before and after treatment (competitive immunoassay)
Type: in vivo, human
Settings: nasal secretion supernatants, change from baseline after treatment, N=6, paired samples
Experimental: Nasal secretions were obtained under endoscopic guidance using a sterile sinus secretion collector (Xomed Surgical Produces, Jacksonville, Fla.) from CRS patients before and after treatment with either placebo or amphotericin B. Each secretion specimen was extracted by adding twice the volume of 0.9% NaCl, vortexing, and centrifugation. The supernatants were stored at −20° C. To monitor changes in fungal antigen burden with treatment, total Alternaria polypeptides in nasal secretions were immunochemically quantitated essentially as described for latex polypeptides. Briefly, samples and a standard extract from Alternaria alternata competed with solid-phase Alternaria alternata polypeptides for rabbit anti-Alternaria IgG antibodies (ALK-Abello, Round Rock, Tex.). Radiolabeled, affinity-purified, goat anti-rabbit IgG was used for detection. The results are expressed as mass polypeptide per mL nasal secretion supernatants. The detection limit of the assay was 12 ng/mL for total Alternaria polypeptides. Sufficient quantities of mucus were not available to perform all the assays for each patient. The analyses were performed based on the availability of paired samples.

## C[C@@H]1[C@H](O)[C@@H](C)/C=C/C=C/C=C/C=C/C=C/C=C/C=C/[C@H](O[C@@H]2O[C@H](C)[C@@H](O)[C@H](N)[C@@H]2O)C[C@@H]2O[C@](O)(C[C@@H](O)C[C@@H](O)[C@H](O)CC[C@@H](O)C[C@@H](O)CC(=O)O[C@H]1C)C[C@H](O)[C@H]2C(=O)O [Amphotericin B, amphotericin B]
  Alternaria μg/mL, median change after treatment: -0.30 µg/mL
  Alternaria μg/mL, range for change after treatment: -4.64 to 3.21 µg/mL
